Values quoted from earlier work, collected in patent publication US20210077417A1, “Methods and Compositions Particularly for Treatment of Attention Deficit Disorder” (Purdue Pharma L.P., priority 2018, published 2021).
Where a name gives a salt, the structure may show the parent alone. Read-outs that look alike come from different tables or passages of the source.

How the values were obtained:
patients with ADHD = conditions: reported

COC(=O)C(c1ccccc1)C1CCCCN1 (racemic) [Methylphenidate, dl-threo-methyl-2-phenyl-2-(2-piperidyl)acetate]
Stability (acidic solutions): relatively stable
Degradation amount (hydrolysis of the methyl ester) (as the pH increases to 8.9): up to 100%
Stability (basic solutions): degraded extensively

COC(=O)C(c1ccccc1)C1CCCCN1 (stereo not shown) [Methylphenidate hydrochloride]
Solubility (in acetone): slightly soluble
Solubility (in alcohol): soluble
Solubility (in chloroform): slightly soluble
Solubility (in methanol): freely soluble
Solubility (in water): freely soluble

lisdexamfetamine dimesylate
Duration of action (patients with ADHD): up to 14 hours
Onset of action (patients with ADHD): does not have a rapid onset of action
